This note sets out measurements from US20150322038A1, “PYRAZINE DERIVATIVES AND THEIR USE IN THE TREATMENT OF NEUROLOGICAL DISORDERS” (NOVARTIS AG, priority 2009, published 2015).

The target in one test is human BACE-1 (Homo sapiens, UniProt P56817). In words: Test 1: Inhibition of human BACE-1. The test is classed as biochemical. As to conditions: recombinant BACE-1, pH 4.5, fluorescence-quenched APP-derived peptide substrate. On the procedure:
Test 1: Inhibition of Human BACE-1
IC50 values are calculated from percentage of inhibition of BACE-1 activity as a function of the test compound concentration.

The subject of test [1] is cellular release of amyloid peptide 1-40. In words: Test 4: Inhibition of cellular release of amyloid peptide 1-40. As to conditions: Cricetulus griseus, Chinese hamster ovary cells transfected with the gene for amyloid precursor protein, 24 hours with compound, amyloid peptide 1-40 in supernatant, read-out: Bace IC50. The test is classed as cell-based. On the procedure:
Test 4: Inhibition of Cellular Release of Amyloid Peptide 1-40
Chinese hamster ovary cells are transfected with the gene for amyloid precursor protein. The cells are plated at a density of 8000 cells/well into 96-well microtiter plates and cultivated for 24 hours in DMEM cell culture medium containing 10% FCS. The test compound is added to the cells at various concentrations, and the cells are cultivated for 24 hours in the presence of the test compound. The supernatants are collected, and the concentration of amyloid peptide 1-40 is determined using state of the art immunoassay techniques, for example sandwich ELISA, homogenous time-resolved fluorescence (HTRF) immunoassay, or electro-chemiluminescence immunoassay. The potency of the compound is calculated from the percentage of inhibition of amyloid peptide release as a function of the test compound concentration.

A word on the IC50: it is the concentration needed to halve the response being measured.

Where a name gives a salt, the structure may show the parent alone.

Sequence of human BACE-1 (P56817 46-457 limits assumed): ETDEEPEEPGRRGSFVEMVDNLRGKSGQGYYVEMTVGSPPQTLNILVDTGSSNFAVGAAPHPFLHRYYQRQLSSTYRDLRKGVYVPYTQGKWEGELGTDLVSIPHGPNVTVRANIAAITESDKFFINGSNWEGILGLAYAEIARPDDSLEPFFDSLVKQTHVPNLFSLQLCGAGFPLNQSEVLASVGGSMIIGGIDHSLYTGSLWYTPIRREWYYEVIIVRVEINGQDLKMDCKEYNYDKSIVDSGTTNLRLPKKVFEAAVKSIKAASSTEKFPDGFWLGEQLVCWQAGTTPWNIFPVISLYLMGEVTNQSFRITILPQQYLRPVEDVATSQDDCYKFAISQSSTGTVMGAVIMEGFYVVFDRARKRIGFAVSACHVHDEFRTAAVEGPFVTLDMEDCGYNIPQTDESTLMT

`COC(=O)N1CC(N)=NC(c2cc(NC(=O)c3ccc(Br)cn3)ccc2F)(C(F)F)C1` (centres unmarked) [Example 19, 5-Amino-3-{5-[(5-bromo-pyridine-2-carbonyl)-amino]-2-fluoro-phenyl}-3-difluoromethyl-3,6-dihydro-2H-pyrazine-1-carboxylic acid methyl ester]: the IC50 on human BACE-1 was 22 nM; in test [1], 15 nM.

For the compound `CN1CC(C)(c2cc(NC(=O)c3ccc(Br)cn3)ccc2F)N=C(N)C1=O` (centres unmarked) [Example 4, 5-Bromo-pyridine-2-carboxylic acid [3-(6-amino-2,4-dimethyl-5-oxo-2,3,4,5-tetrahydro-pyrazin-2-yl)-4-fluoro-phenyl]-amide hydrochloride], the IC50 on human BACE-1 is 95 nM; in test [1] it was 91 nM.

For the compound `CCN1CC(C)(c2cc(NC(=O)c3ncc(Cl)cc3Cl)ccc2F)N=C(N)C1=O` (centres unmarked) [Example 8, 3,5-Dichloro-pyridine-2-carboxylic acid [3-(6-amino-4-ethyl-2-methyl-5-oxo-2,3,4,5-tetrahydro-pyrazin-2-yl)-4-fluoro-phenyl]-amide hydrochloride], the concentration for half-maximal inhibition (IC50) came to 21 nM at human BACE-1 and 74 nM in test [1].

For `Cc1cc(Br)cnc1C(=O)Nc1ccc(F)c(C2(C(F)F)CN(C(=O)C3CC3)CC(N)=N2)c1` (centres unmarked) [Example 24, 5-Bromo-3-methyl-pyridine-2-carboxylic acid [3-(6-amino-4-cyclopropanecarbonyl-2-difluoromethyl-2,3,4,5-tetrahydro-pyrazin-2-yl)-4-fluoro-phenyl]-amide], the values for the IC50 (at human BACE-1; in test [1]) were 11 nM and 28 nM, respectively.
